Measurements: patent US6686373B2, “Pyrazoloquinolinone derivatives as protein kinase C inhibitors” (Warner-Lambert Company LLC, priority 2001, dated 2004)
Counter-ions that a name gives are not always drawn.

SMILES	melting point
Cn1ncc2[nH]c3cc(F)ccc3c(=O)c21 [Example 3, 6-FLUORO-1-METHYL-1,4-DIHYDRO-9H-PYRAZOLO[4,3-b]QUINOLIN-9-ONE]	269 °C
Cn1ncc2[nH]c3ccc(Cc4cccc(C#N)c4)cc3c(=O)c21 [Example 28, 3-[(1-METHYL-9-OXO-4,9-DIHYDRO-1H-PYRAZOLO[4,3-b]QUINOLIN-7-YL)METHYL]BENZONITRILE]	275 °C
Cc1ccc2c(c1)c(=O)c1c(cnn1C)n2CCCNS(C)(=O)=O [Example 60, N-[3-(1,7-DIMETHYL-9-OXO-1,9-DIHYDRO-4H-PYRAZOLO[4,3-b]QUINOLIN-4-YL)PROPYL]METHANESULFONAMIDE]	179 °C
Cn1ncc2[nH]c3ccc(Cc4cccc(C(=O)O)c4)cc3c(=O)c21 [Example 30, 3-[(1-METHYL-9-OXO-4,9-DIHYDRO-1H-PYRAZOLO[4,3-b]QUINOLIN-7-YL)METHYL]BENZOIC ACID]	> 300 °C
Cn1ncc2[nH]c3ccc(Cc4cccc(C(N)=O)c4)cc3c(=O)c21 [Example 29, 3-[(1-METHYL-9-OXO-4,9-DIHYDRO-1H-PYRAZOLO[4,3-b]QUINOLIN-7-YL)METHYL]BENZAMIDE]	> 300 °C
Cl.Cn1ncc2[nH]c3ccc(Cc4cccnc4)cc3c(=O)c21	259 °C
Cl.Cn1ncc2[nH]c3ccc(Cc4cccc(N)c4)cc3c(=O)c21	287 °C (dec.)
Cl.Cn1ncc2[nH]c3ccc(Cc4ccc(CN)cc4)cc3c(=O)c21	> 300 °C
Cl.Cn1ncc2[nH]c3ccc(Cc4ccccc4CN)cc3c(=O)c21	> 250 °C
Cc1ccc2c(c1)c(=O)c1c(cnn1C)n2CCCN(C)C.Cl	240 °C
Cn1ncc2[nH]c3ccc(Cc4ccc(C#N)cc4)cc3c(=O)c21 [Example 26, 4-[(1-METHYL-9-OXO-4,9-DIHYDRO-1H-PYRAZOLO[4,3-b]QUINOLIN-7-YL)METHYL]BENZONITRILE]	291 °C
Cn1ncc2[nH]c3c(c(=O)c21)CC(Cc1ccccc1)CC3 (stereo not drawn) (as salt: hydrochloride)	> 250 °C
Cn1ncc2[nH]c3ccc(Cc4ccccc4)cc3c(=O)c21 [Example 11, 7-BENZYL-1-METHYL-1,4-DIHYDRO-9H-PYRAZOLO[4,3-b]QUINOLIN-9-ONE]	282 °C
Cc1ccc2c(c1)c(=O)c1c(cnn1C)n2CCCCCCN(C)C.Cl	210 °C
Cn1ncc2[nH]c3cccc(-c4ccc(O)cc4)c3c(=O)c21 [Example 38, 8-(4-HYDROXYPHENYL)-1-METHYL-1,4-DIHYDRO-9H-PYRAZOLO[4,3-b]QUINOLIN-9-ONE]	> 300 °C
Cc1ccc2c(c1)c(=O)c1c(cnn1C)n2CCN.Cl	> 280 °C
Cn1ncc2[nH]c3ccc(F)cc3c(=O)c21 [Example 1, 7-FLUORO-1-METHYL-1,4-DIHYDRO-9H-PYRAZOLO[4,3-b]QUINOLIN-9-ONE]	301 °C
CCCCCCn1c2ccc(C)cc2c(=O)c2c1cnn2C	80 to 82 °C
COc1ccccc1Cc1ccc2[nH]c3cnn(C)c3c(=O)c2c1 [Example 21, 7-(2-METHOXYBENZYL)-1-METHYL-1,4-DIHYDRO-9H-PYRAZOLO[4,3-b]QUINOLIN-9-ONE]	255 °C
Cc1ccc2c(c1)c(=O)c1c(cnn1C)n2CCCl [Example 62, 4-(2-CHLOROETHYL)-1,7-DIMETHYL-1,4-DIHYDRO-9H-PYRAZOLO[4,3-b]QUINOLIN-9-ONE]	196 °C
CCc1ccc2[nH]c3cnn(C)c3c(=O)c2c1 [Example 6, 7-ETHYL-1-METHYL-1,4-DIHYDRO-9H-PYRAZOLO[4,3-b]QUINOLIN-9-ONE]	266 °C
COc1ccc(Cc2ccc3[nH]c4cnn(C)c4c(=O)c3c2)cc1 [Example 16, 7-(4-METHOXYBENZYL)-1-METHYL-1,4-DIHYDRO-9H-PYRAZOLO[4,3-b]QUINOLIN-9-ONE]	248 to 249 °C
Cn1ncc2[nH]c3ccc(Cc4ccccc4Cl)cc3c(=O)c21 [Example 15, 7-(2-CHLOROBENZYL)-1-METHYL-1,4-DIHYDRO-9H-PYRAZOLO[4,3-b]QUINOLIN-9-ONE]	278 °C
Cc1ccc2c(c1)c(=O)c1c(cnn1C)n2CCN(C)C.Cl	255 °C

SMILES	melting point
Cn1ncc2[nH]c3c(F)cccc3c(=O)c21 [Example 2, 5-FLUORO-1-METHYL-1,4-DIHYDRO-9H-PYRAZOLO[4,3-b]QUINOLIN-9-ONE]	> 300 °C
Cn1ncc2[nH]c3ccc(Cc4ccccc4C(N)=O)cc3c(=O)c21 [Example 32, 2-[(1-METHYL-9-OXO-4,9-DIHYDRO-1H-PYRAZOLO[4,3-b]QUINOLIN-7-YL)METHYL]BENZAMIDE]	> 300 °C
CCCCn1c2ccc(C)cc2c(=O)c2c1cnn2C [Example 48, 4-BUTYL-1,7-DIMETHYL-1,4-DIHYDRO-9H-PYRAZOLO[4,3-b]QUINOLIN-9-ONE]	262 °C
Cl.Cn1ncc2[nH]c3ccc(Cc4ccccc4N)cc3c(=O)c21	273 °C
CCN(C)CCCn1c2ccc(C)cc2c(=O)c2c1cnn2C.Cl	213 °C
Cn1ncc2[nH]c3ccc(Cc4cccc(O)c4)cc3c(=O)c21 [Example 20, 7-(3-HYDROXYBENZYL)-1-METHYL-1,4-DIHYDRO-9H-PYRAZOLO[4,3-b]QUINOLIN-9-ONE]	> 270 °C
Cn1ncc2[nH]c3ccc(Cc4cccc([N+](=O)[O-])c4)cc3c(=O)c21 [Example 23, 1-METHYL-7-(3-NITROBENZYL)-1,4-DIHYDRO-9H-PYRAZOLO[4,3-b]QUINOLIN-9-ONE]	279 to 283 °C
CSCCn1c2ccc(C)cc2c(=O)c2c1cnn2C [Example 53, 1,7-DIMETHYL-4-[2-(METHYLSULFANYL)ETHYL]-1,4-DIHYDRO-9H-PYRAZOLO[4,3-b]QUINOLIN-9-ONE]	125 °C
Cc1ccc2c(c1)c(=O)c1c(cnn1C)n2CC(N)=O [Example 52, 2-(1,7-DIMETHYL-9-OXO-1,9-DIHYDRO-4H-PYRAZOLO[4,3-b]QUINOLIN-4-YL)ACETAMIDE]	247 to 252 °C
Cn1ncc2[nH]c3cccc(F)c3c(=O)c21 [Example 4, 8-FLUORO-1-METHYL-1,4-DIHYDRO-9H-PYRAZOLO[4,3-b]QUINOLIN-9-ONE]	> 300 °C
Cn1ncc2[nH]c3ccc(-c4cccc(O)c4)cc3c(=O)c21 [Example 40, 7-[3-HYDROXYPHENYL]-1-METHYL-1,4-DIHYDRO-9H-PYRAZOLO[4,3-b]QUINOLIN-9-ONE]	> 250 °C
Cn1ncc2[nH]c3ccc(NC(=O)c4ccccc4)cc3c(=O)c21 [Example 46, N-(1-METHYL-9-OXO-4,9-DIHYDRO-1H-PYRAZOLO[4,3-b]QUINOLIN-7-YL)BENZAMIDE]	> 300 °C
CCc1cccc2c(=O)c3c(cnn3C)[nH]c12 [Example 7, 5-ETHYL-1-METHYL-1,4-DIHYDRO-9H-PYRAZOLO[4,3-b]QUINOLIN-9-ONE]	254 °C
Cn1ncc2[nH]c3cccc(-c4cccc(O)c4)c3c(=O)c21 [Example 39, 8-(3-HYDROXYPHENYL)-1-METHYL-1,4-DIHYDRO-9H-PYRAZOLO[4,3-b]QUINOLIN-9-ONE]	> 300 °C
CN(C)CCOc1ccc(Cc2ccc3[nH]c4cnn(C)c4c(=O)c3c2)cc1.Cl	235 to 240 °C
Cl.Cn1ncc2[nH]c3ccc(Cc4cccc(CN)c4)cc3c(=O)c21	> 300 °C
Cn1ncc2[nH]c3c(c(=O)c21)CC(Cc1ccc(Cl)cc1)CC3 (stereo not drawn) (as salt: hydrochloride)	279 °C
Cn1ncc2[nH]c3c(Br)cccc3c(=O)c21 [Example 5, 5-BROMO-1-METHYL-1,4-DIHYDRO-9H-PYRAZOLO[4,3-b]QUINOLIN-9-ONE]	287 °C
CCc1ccc2c(=O)c3c(cnn3C)[nH]c2c1 [Example 9, 6-ETHYL-1-METHYL-1,4-DIHYDRO-9H-PYRAZOLO[4,3-b]QUINOLIN-9-ONE]	263 °C
Cn1ncc2[nH]c3c(c(=O)c21)CCCC3 [Example 67, 1-METHYL-5,6,7,8-TETRAHYDRO-1H-PYRAZOLO[4,3-b]QUINOLIN-9-OL]	> 300 °C
Cc1ccc2c(c1)c(=O)c1c(cnn1C)n2CC#N [Example 51, (1,7-DIMETHYL-9-OXO-1,9-DIHYDRO-4H-PYRAZOLO[4,3-b]QUINOLIN-4-YL)ACETONITRILE]	214 to 219 °C
Cc1ccc2[nH]c3c(N)nn(C)c3c(=O)c2c1 [Example 12, 3-AMINO-1,7-DIMETHYL-1,4-DIHYDRO-9H-PYRAZOLO[4,3-b]QUINOLIN-9-ONE]	> 300 °C
CCc1cccc2[nH]c3cnn(C)c3c(=O)c12 [Example 8, 8-ETHYL-1-METHYL-1,4-DIHYDRO-9H-PYRAZOLO[4,3-b]QUINOLIN-9-ONE]	250 °C
Cl.Cn1ncc2[nH]c3ccc(CCCN)cc3c(=O)c21	> 300 °C
